Measurements published in ChEMBL document CHEMBL1201862, “PubChem BioAssay data set” (2004).
Active and inactive are the calls of the source.

Key:
[1] = target: Glyceraldehyde-3-phosphate dehydrogenase (Homo sapiens, UniProt P04406)
[2] = target: T1, Alkaline phosphatase, tissue-nonspecific isozyme (Homo sapiens, UniProt P05186); test: potency against alkaline phosphatase TNAP – biochemical, luminescent, dose response, SAR follow-up (AID 1056)
T1 sequence (P05186 whole entry): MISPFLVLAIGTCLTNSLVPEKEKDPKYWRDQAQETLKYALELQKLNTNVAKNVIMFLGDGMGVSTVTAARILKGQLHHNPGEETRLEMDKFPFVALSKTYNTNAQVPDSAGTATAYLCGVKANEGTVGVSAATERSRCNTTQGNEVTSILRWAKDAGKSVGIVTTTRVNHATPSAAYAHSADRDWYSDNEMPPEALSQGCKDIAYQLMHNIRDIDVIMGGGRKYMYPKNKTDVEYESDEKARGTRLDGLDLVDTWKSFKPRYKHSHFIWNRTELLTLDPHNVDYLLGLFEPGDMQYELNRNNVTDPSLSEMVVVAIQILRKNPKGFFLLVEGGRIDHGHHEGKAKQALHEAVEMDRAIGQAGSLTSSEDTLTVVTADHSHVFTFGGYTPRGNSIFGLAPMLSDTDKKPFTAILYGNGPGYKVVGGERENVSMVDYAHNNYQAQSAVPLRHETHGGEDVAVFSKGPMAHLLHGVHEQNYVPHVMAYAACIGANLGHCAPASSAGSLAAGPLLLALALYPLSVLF

[3] = target: T2, G-protein coupled receptor 55 (Homo sapiens, UniProt Q9Y2T6); test: selective activators of receptor GPR55 – imaging, U2OS cells, beta-arrestin-GFP redistribution, primary screen (AID 1961); format: functional
T2 sequence (Q9Y2T6 whole entry): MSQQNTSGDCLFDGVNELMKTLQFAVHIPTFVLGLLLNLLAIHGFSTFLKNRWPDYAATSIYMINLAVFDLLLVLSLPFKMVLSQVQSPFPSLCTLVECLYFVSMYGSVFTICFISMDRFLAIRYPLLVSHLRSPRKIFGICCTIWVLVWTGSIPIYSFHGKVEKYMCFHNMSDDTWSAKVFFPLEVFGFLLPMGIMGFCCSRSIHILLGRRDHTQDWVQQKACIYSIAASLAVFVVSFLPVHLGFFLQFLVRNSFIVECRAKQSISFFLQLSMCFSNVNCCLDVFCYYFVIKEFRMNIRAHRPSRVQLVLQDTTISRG

Ion channel NompC = Ion channel NompC (Danio rerio, UniProt Q7T1G6); test: Dose response cell-based high-throughput screening assay for agonists of the transient receptor potential channel N1 (TRPN1). [Related pubchem assays (depositor defined):AID1424, AID1448]; format: functional
Mucolipin-3 = target: T3, Mucolipin-3 (Homo sapiens, UniProt Q8TDD5); test: Fluorescence counterscreen assay for […] agonists: dose response cell-based high-throughput screening assay to identify agonists of the transient receptor potential channel ML3 (TRPML3). [Related pubchem assays: 1424, 1448 ]; format: functional
T3 sequence (Q8TDD5 whole entry): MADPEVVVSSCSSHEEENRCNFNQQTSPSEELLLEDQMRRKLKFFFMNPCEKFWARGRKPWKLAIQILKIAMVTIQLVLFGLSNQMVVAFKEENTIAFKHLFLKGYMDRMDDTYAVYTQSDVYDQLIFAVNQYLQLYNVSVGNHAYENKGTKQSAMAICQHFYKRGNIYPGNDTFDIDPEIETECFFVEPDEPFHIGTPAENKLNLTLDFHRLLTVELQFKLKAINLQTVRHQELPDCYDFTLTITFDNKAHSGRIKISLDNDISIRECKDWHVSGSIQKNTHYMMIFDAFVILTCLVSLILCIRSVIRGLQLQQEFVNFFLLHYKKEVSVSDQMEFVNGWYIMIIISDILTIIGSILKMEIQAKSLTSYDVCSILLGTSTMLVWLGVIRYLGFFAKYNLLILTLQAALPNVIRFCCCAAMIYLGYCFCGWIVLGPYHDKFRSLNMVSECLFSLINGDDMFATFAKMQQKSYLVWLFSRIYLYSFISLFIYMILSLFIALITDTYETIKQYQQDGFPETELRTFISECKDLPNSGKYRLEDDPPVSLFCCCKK

Mu-type opioid receptor = Mu-type opioid receptor (Homo sapiens, UniProt P35372); test: SAR Analysis of Antagonists of the MOR Receptor using an Image-Based Assay - Set 3. [Related pubchem assays (depositor defined):AID1777, AID1785, AID1786, AID1966, AID2133, AID2136, AID2284, AID2285, AID2420]; format: functional
Chain of Mu-type opioid receptor (P35372 whole entry): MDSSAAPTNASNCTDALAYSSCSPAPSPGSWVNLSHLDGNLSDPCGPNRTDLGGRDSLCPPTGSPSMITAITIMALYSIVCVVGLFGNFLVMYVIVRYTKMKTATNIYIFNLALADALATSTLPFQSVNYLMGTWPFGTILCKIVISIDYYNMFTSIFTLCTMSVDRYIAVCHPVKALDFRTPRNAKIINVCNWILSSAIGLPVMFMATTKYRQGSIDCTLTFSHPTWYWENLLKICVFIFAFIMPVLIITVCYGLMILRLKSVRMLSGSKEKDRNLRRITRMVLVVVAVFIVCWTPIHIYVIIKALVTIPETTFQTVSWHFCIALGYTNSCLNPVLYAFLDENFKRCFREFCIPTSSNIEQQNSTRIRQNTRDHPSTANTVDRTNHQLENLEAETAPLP

[4] = target: T4, Kappa-type opioid receptor (Homo sapiens, UniProt P41145); test: SAR analysis of Antagonists of the Kappa Opioid Receptor (KOR) using an Image-Based Assay - Set 4. [Related pubchem assays (depositor defined):AID1777, AID1785]; format: functional
T4 sequence (P41145 whole entry): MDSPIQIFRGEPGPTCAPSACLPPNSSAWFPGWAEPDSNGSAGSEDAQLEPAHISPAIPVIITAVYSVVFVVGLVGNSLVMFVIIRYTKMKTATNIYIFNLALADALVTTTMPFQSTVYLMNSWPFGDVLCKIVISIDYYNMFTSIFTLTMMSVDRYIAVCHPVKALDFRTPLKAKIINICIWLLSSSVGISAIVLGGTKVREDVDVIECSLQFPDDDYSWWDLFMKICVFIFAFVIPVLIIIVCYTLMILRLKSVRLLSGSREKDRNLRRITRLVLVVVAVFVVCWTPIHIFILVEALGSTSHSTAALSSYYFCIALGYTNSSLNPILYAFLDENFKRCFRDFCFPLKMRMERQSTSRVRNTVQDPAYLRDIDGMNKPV

[5] = target: T4, Kappa-type opioid receptor; test: SAR analysis of small molecule antagonists of the kappa opioid receptor via a luminescent beta-arrestin assay - Set 3. [Related pubchem assays (depositor defined):AID1777, AID1778, AID1785, AID1786, AID1966, AID2133, AID2136, AID2285, AID2495]; format: functional
[6] = target: Delta-type opioid receptor (Homo sapiens, UniProt P41143); test: SAR Analysis of Antagonists of the DOR Receptor using an Image-Based Assay - Set 3. [Related pubchem assays (depositor defined):AID1777, AID1785]; format: functional;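 note: U2OS cells expressing DOR1 and beta-arrestin GFP stimulated with 100 nM SNC80; imaging of GFP-tagged beta-arrestin moving into spots after receptor activation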
Chain of Delta-type opioid receptor (P41143 whole entry): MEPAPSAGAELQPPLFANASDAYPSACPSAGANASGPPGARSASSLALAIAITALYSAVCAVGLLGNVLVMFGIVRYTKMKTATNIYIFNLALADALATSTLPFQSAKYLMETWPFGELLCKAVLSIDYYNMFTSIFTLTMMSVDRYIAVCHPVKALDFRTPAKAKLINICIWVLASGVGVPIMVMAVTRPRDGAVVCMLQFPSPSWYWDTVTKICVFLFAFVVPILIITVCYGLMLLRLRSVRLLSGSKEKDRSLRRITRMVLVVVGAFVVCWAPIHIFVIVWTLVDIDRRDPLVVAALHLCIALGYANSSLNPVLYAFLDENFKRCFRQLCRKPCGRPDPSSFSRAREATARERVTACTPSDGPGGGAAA

[7] = target: G-protein coupled receptor 35 (Homo sapiens, UniProt Q9HC97); test: SAR analysis of Antagonists of the GPR35 Receptor using an Image-Based Assay - Set 5. [Related pubchem assays (depositor defined):AID2058, AID2079]; format: functional
[8] = target: T2, G-protein coupled receptor 55; test: SAR Analysis of Selective Antagonists of GPR55 using an Image-Based Assay - Set 3. [Related pubchem assays (depositor defined):AID2058, AID2079]; format: functional
Trypanosoma cruzi = test: anti-trypanosomal activity in host cells – cell-based, plate reader, dry powder, set 3, dose response (AID 493197); format: functional
[9] = NIH/3T3 cell viability loss – mouse embryonic fibroblasts, dry powder, set 2, cytotoxicity control, dose response (AID 493247); format: functional, cell-based; settings: Fibroblast
[10] = target: T5, Dual specificity protein phosphatase 6 (Rattus norvegicus, UniProt Q64346); format: functional;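 note: confirmatory in vitro dose-response testing of MKP-3 inhibition; recombinant His-tagged MKP-3 made in E. coli BL21 with OMFP substrate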
T5 sequence (Q64346 whole entry): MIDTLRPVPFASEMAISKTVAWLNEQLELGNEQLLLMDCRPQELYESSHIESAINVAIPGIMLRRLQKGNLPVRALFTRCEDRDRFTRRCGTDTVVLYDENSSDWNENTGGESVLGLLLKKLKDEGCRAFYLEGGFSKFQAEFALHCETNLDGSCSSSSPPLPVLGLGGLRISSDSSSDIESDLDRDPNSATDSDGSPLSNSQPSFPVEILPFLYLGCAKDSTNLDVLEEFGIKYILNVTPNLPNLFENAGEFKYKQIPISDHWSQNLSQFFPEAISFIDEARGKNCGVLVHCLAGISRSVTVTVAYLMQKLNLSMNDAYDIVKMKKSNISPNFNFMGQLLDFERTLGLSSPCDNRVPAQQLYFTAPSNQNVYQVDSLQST

[11] = target: T6, Dual specificity protein phosphatase 3 (Homo sapiens, UniProt P51452); test: SAR VHR1 absorbance Assay for In Vitro dose response studies. [Related pubchem assays (depositor defined):AID1654, AID1661, AID1878, AID1992, AID2004]
T6 sequence (P51452 whole entry): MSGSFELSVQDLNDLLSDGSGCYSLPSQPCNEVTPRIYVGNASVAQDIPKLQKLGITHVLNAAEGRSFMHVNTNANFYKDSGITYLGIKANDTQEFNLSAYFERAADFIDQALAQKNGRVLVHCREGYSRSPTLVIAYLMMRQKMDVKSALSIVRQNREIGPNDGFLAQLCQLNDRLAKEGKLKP

[12] = target: T6, Dual specificity protein phosphatase 3; test: SAR VHR1 Fluorescent Assay for In Vitro dose response studies Set 2. [Related pubchem assays (depositor defined):AID1654, AID1661, AID1878]; format: functional
[13] = target: T6, Dual specificity protein phosphatase 3; test: SAR VHR1 Fluorescent Assay for In Vitro dose response studies. [Related pubchem assays (depositor defined):AID1654, AID1661, AID1878, AID1992, AID2004, AID2070, AID2085]; format: functional
[14] = target: T7, Tyrosine-protein phosphatase non-receptor type 7 (Homo sapiens, UniProt P35236); test: redox-active compounds inhibiting HePTP phosphatase – biochemical, fluorescence, mechanism study (AID 2068); format: functional
T7 sequence (P35236 whole entry): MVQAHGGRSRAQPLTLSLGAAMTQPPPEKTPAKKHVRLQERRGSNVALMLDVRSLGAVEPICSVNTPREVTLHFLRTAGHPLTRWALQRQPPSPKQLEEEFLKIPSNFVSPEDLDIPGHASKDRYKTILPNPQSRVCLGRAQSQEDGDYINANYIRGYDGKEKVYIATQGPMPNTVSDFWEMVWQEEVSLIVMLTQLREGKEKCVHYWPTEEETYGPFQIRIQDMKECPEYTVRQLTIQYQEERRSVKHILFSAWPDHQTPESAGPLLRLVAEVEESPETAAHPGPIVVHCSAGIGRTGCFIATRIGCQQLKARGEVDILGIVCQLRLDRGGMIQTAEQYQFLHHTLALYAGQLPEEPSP

[15] = Luminescence Cell-Based Dose Retest to Confirm Inhibitors of Cancer Stem Cells. [Related pubchem assays (depositor defined):AID2717, AID2721]; format: functional; settings: Homo sapiens
Phospholipase A2 = Phospholipase A2 (Homo sapiens, UniProt P04054); format: functional;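 note: confirmatory dose-response counterscreen on phospholipase A2, testing hits that came from an ultra-high-throughput screen for ATG4B inhibitors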
Chain of Phospholipase A2 (P04054 whole entry): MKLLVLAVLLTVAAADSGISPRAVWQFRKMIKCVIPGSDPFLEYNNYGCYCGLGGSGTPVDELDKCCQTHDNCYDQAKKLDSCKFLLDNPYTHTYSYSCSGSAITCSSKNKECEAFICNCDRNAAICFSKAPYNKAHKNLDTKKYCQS

[16] = target: Induced myeloid leukemia cell differentiation protein Mcl-1 (Homo sapiens, UniProt Q07820); format: functional
Chain of Induced myeloid leukemia cell differentiation protein Mcl-1 (Q07820 whole entry): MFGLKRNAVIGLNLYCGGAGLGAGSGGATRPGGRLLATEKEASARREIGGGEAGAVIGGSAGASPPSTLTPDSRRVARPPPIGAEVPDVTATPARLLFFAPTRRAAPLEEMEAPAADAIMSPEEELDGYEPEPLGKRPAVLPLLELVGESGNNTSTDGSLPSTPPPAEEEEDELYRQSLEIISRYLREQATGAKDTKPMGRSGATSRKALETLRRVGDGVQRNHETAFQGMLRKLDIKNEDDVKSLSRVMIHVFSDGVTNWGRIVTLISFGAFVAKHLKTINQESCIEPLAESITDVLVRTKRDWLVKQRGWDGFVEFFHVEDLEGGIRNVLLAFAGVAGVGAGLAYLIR

Cysteine protease ATG4B = target: T8, Cysteine protease ATG4B (Homo sapiens, UniProt Q9Y4P1); format: functional;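 note: Fluorescence-based dose-response confirmation assay measuring inhibition of ATG4B activity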
T8 sequence (Q9Y4P1 whole entry): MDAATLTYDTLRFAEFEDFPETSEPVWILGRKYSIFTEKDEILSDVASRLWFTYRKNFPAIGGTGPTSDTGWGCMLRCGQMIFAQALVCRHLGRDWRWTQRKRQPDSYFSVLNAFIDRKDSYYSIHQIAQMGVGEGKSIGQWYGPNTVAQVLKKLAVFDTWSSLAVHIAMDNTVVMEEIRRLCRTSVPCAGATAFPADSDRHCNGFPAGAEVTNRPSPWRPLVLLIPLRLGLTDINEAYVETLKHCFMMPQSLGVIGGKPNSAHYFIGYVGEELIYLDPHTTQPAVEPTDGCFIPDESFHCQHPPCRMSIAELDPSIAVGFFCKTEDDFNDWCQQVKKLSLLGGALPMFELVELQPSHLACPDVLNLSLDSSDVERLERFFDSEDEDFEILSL

[17] = target: DNA damage-inducible transcript 3 protein (Mus musculus, UniProt P35639); format: functional, Cricetulus griseus
Chain of DNA damage-inducible transcript 3 protein (P35639 whole entry): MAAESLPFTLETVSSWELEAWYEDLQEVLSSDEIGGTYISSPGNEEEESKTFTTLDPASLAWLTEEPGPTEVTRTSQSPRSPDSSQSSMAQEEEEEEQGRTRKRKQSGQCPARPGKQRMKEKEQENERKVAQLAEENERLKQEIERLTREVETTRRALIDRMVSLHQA

[18] = Trypanosoma cruzi growth suppression in host cells – NIH3T3 host cells, beta-gal luminescence, confirmation (AID 2044); format: functional, cell-based;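 note: intracellular parasites grown in NIH/3T3 mouse fibroblasts as host cells; luminescent beta-galactosidase reporter signal from transgenic T. cruzi replicating inside host cells; inhibitors lower the luminescence signal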
INS1 = test: INS-1E survival protection against cytokine death – cell-based, luminescence, retest, dose response (AID 449756); format: functional; settings: Rattus norvegicus;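 note: cell death triggered by IL-1 beta plus TNF-alpha plus IFN-gamma mixture; protective hits raise ATP signal compared with cytokine alone wells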
[19] = NIH3T3 cell viability loss – ATP luminescence, mouse fibroblasts, counter-screen, dose response (AID 2010); format: functional, cell-based;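 note: cells exposed to compound for about 90 hours before reading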
Cytochrome P450 2C9 = Cytochrome P450 2C9 (Homo sapiens, UniProt P11712)
Chain of Cytochrome P450 2C9 (P11712 whole entry, the tested form may be a part): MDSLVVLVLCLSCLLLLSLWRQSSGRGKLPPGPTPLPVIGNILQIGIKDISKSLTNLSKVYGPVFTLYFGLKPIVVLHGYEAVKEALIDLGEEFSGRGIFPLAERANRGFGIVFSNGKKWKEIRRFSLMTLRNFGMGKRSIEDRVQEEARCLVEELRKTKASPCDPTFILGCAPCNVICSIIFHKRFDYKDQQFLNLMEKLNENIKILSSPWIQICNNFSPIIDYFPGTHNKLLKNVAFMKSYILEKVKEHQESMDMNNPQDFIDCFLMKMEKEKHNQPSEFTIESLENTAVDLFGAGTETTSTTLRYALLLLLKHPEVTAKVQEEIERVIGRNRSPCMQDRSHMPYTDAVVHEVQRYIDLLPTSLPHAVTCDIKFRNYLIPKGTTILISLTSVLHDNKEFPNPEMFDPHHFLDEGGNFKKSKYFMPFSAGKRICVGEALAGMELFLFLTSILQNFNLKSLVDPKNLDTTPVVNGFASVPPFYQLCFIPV

[20] = target: 1-acylglycerol-3-phosphate O-acyltransferase ABHD5/Perilipin-5 (Homo sapiens, UniProt Q00G26+Q8WTS1); test: Luminescence-based biochemical high throughput dose response assay for inhibitors of the interaction of the lipase co-activator protein, abhydrolase domain containing 5 (ABHD5) with perilipin-5 (MLDP; PLIN5) (2K validation set). [Related pubchem assays (depositor defined):AID493035, AID493241]
Chain of 1-acylglycerol-3-phosphate O-acyltransferase ABHD5/Perilipin-5 (Q00G26 whole entry, the tested form may be a part): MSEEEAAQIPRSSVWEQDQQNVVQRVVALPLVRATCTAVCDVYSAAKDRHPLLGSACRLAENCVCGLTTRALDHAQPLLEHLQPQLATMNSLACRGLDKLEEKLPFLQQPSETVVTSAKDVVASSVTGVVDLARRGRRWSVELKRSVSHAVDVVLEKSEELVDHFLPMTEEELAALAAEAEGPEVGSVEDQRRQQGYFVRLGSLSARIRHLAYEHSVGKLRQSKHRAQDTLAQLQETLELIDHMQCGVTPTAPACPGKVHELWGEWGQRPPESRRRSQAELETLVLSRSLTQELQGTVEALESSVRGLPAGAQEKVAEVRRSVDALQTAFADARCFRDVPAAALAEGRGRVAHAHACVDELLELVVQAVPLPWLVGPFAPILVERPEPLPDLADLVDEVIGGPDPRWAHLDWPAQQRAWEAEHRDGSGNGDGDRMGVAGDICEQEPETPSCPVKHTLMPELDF
Chain of 1-acylglycerol-3-phosphate O-acyltransferase ABHD5/Perilipin-5 (Q8WTS1 whole entry, the tested form may be a part): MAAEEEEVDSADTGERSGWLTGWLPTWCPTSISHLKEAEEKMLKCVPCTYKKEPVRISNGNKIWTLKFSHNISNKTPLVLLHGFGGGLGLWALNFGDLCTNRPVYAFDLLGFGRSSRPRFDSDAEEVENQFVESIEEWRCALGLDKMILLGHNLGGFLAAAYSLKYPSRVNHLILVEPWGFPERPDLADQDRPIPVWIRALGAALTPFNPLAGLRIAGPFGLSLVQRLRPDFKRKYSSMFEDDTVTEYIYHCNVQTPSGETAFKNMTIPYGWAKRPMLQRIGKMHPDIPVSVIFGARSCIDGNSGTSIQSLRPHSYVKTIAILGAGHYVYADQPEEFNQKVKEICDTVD

Cytochrome P450 2D6 = Cytochrome P450 2D6 (Homo sapiens, UniProt P10635);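 note: CYP2D6 member of a cytochrome P450 panel assay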
Chain of Cytochrome P450 2D6 (P10635 whole entry, the tested form may be a part): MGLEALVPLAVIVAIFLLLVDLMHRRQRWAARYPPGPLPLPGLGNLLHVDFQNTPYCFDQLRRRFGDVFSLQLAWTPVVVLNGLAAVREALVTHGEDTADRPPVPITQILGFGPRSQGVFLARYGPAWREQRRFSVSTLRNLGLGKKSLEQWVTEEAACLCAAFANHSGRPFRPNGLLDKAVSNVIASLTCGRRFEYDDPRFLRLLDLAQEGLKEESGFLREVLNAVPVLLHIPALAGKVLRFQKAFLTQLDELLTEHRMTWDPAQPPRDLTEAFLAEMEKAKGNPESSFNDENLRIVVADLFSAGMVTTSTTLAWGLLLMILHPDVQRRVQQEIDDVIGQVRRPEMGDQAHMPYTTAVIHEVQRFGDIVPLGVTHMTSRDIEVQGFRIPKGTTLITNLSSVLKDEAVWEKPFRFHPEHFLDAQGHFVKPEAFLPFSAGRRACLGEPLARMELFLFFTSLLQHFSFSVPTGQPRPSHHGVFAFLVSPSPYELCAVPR

Perilipin-1/ABHD5 = Perilipin-1/ABHD5 (Homo sapiens, UniProt O60240+Q8WTS1); test: Luminescence-based biochemical high throughput dose response assay for inhibitors of the interaction of the lipase co-activator protein, abhydrolase domain containing 5 (ABHD5) with perilipin-1 (PLIN1) (2K validation set). [Related pubchem assays (depositor defined):AID493027, AID493057]
Chain of Perilipin-1/ABHD5 (Q8WTS1 whole entry, the tested form may be a part): as the sequence (Q8WTS1 whole entry, the tested form may be a part) above
Chain of Perilipin-1/ABHD5 (O60240 whole entry, the tested form may be a part): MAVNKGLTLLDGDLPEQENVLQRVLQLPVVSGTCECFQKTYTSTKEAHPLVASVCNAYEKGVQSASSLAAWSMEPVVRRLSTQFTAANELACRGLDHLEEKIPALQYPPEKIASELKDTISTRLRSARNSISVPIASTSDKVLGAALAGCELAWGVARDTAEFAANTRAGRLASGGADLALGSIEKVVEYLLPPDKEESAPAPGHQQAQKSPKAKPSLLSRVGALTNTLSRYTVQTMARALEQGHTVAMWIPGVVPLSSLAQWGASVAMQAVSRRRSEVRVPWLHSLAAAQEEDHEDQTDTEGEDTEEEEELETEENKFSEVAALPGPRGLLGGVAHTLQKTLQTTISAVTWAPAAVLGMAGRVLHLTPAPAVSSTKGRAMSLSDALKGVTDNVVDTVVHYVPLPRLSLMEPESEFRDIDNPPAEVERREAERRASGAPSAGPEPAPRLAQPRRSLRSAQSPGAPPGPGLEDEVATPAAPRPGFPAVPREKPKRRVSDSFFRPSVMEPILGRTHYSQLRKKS

[21] = target: T9, Mannose-6-phosphate isomerase (Homo sapiens, UniProt P34949); test: MPI inhibition at elevated mannose 6-phosphate – biochemical, fluorescence intensity, high mannose 6-phosphate, primary screen (AID 1220)
T9 sequence (P34949 whole entry): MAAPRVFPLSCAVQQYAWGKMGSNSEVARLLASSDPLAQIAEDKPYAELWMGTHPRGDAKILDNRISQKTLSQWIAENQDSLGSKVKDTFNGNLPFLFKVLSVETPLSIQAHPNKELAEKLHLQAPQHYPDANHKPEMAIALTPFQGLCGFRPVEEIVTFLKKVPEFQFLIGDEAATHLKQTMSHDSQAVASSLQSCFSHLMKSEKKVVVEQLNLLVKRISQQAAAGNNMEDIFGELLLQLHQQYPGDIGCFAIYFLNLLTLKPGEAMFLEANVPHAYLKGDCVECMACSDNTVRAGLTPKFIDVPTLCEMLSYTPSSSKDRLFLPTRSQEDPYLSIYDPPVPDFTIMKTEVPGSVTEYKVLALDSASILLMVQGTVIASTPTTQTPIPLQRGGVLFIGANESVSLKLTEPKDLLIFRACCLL

## O=S(=O)(Nc1cnc2ccccc2c1)c1ccc(F)cc1
[1]
  IC50: > 100 µM (not active)
[2]
  IC50: > 100 µM (inactive)

## COc1ccc(-c2cc(C(F)(F)F)n3nc(C(=O)NCc4ccco4)cc3n2)cc1
[3]
  EC50: > 32 µM (inactive)

## CCOC(=O)C1CN(S(=O)(=O)c2ccc(C)cc2)CCN1S(=O)(=O)c1ccc(C)cc1 (stereo unspecified)
Ion channel NompC
  EC50: > 29.9 µM (inactive)
Mucolipin-3
  EC50: > 29.9 µM (not active)

## CCN(CCNC(=O)c1ccc(CNS(=O)(=O)c2ccccc2)cc1)Cc1ccccc1
Mu-type opioid receptor
  IC50: 2.03 µM (active)
[4]
  IC50: 12.1 µM (inactive)
[5]
  IC50: 4.86 µM (active)
[6]
  IC50: > 32 µM (inactive)

## COC(=O)c1cnn(-c2ccccc2)c1/C=N/NC(N)=S
[7]
  IC50: > 32 µM (inactive)
[8]
  IC50: > 32 µM (inactive)

## CCCNC(=O)C1(C)CCCN(Cc2ccc(Oc3ccccc3)cc2)C1 (stereo unspecified)
Trypanosoma cruzi
  AC50: 8.72 µM (active)
[9]
  AC50: 22.9 µM (active)

## CNS(=O)(=O)c1cccc(C(=O)NC2CCSc3ccccc32)c1 (stereo unspecified)
[10]
  IC50: > 100 µM (inactive)
[11]
  IC50: > 100 µM (inactive)
[12]
  IC50: > 100 µM (inactive)
[13]
  IC50: > 100 µM (inactive)
[14]
  IC50: > 100 µM (inactive)

## Cc1ccccc1/C=N/Nc1ccnc2cc(Cl)ccc12
[15]
  AC50: 3.62 µM (active)
Phospholipase A2
  IC50: 11.4 µM (active)
[16]
  IC50: 5.13 µM (active)
Cysteine protease ATG4B
  IC50: 14.7 µM (active)
[17]
  Absolute IC50 (CHOP): 10 µM
[18]
  EC50: 1.07 µM (active)
INS1
  AC50: 5.39 µM (active)
[19]
  EC50: > 60 µM (not active)

## Nc1cc(-c2ccncc2)c[nH]c1=O [INAMRINONE]
Cytochrome P450 2C9
  AC50: 12.6 µM (inconclusive)
[20]
  IC50: 78.8 µM (inactive)
Cytochrome P450 2D6
  AC50: 12.6 µM (inconclusive)
Perilipin-1/ABHD5
  IC50: > 79.5 µM (inactive)
[21]
  IC50: > 50 µM (not active)
